Measurements reported in patent US10350210B2, “EGFR and ALK dual inhibitor” (PRECEDO PHARMACEUTICALS CO., LTD, priority 2015, dated 2019).
“Also recorded” adds a separate entry of the source.

Key:
BaF3-ALK-F1174L = test: Cell growth (Cell Titer-Glo viability), BaF3-ALK-F1174L; assay type: cell-based; conditions: Mus musculus; BaF3-ALK-F1174L (mutant ALK F1174L kinase), 72 hrs
Outline: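 Human kinase sequences were PCR-amplified, fused to an N-terminal TEL fragment, and stably introduced into murine BaF3 by retrovirus. IL-3 was then removed to make growth kinase-dependent. Compound effects on these cells and on EGFR-mutant HCC827 and NCI-H3255 were scored by CellTiter-Glo luminescence.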

[1] = test system: non-small cell lung cancer cell H1975 subcutaneous tumors; test: Mouse tumor model of non-small cell lung cancer cell H1975; assay type: in vivo; conditions: for tumor inhibition rate: Bal b/c mice
Description: (§1) Similarly, 27 Bal b/c female mice, 4-6 weeks old, were purchased from Shanghai SLAC Laboratory Animal Co., Ltd., and maintained in an SPF laboratory. Drinking water and bedding were both sterilized by autoclaving. All operations involving the mice were performed under aseptic conditions. At day 0, 5×10^6 non-small cell lung cancer cells H1975 (purchased from ATCC) were injected subcutaneously into the left flank of all mice. At day 15, all mice were divided into three groups (9 mice per group), and the first group of mice were orally administered with methyl cellulose (HKI) solvent, the second group of mice were orally administered with Compound 1 at a dose of 25 mg/kg mouse weight, and the third group of mice were orally administered with Compound 1 at a dose of 50 mg/kg mouse weight daily. Starting from the administration, the length/width of the subcutaneous tumor was measured daily with a vernier caliper, and the weight of the mice was recorded daily to observe the effect of Compound 1 on the body weight of the mice. The mice were sacrificed at day 36 and the subcutaneous tumors were collected. The tumors were weighed, and then the tumor tissues were used to prepare protein lysates for use. The growth trend of the subcutaneous tumor within 16-36 days was plotted, wherein the tumor volume was calculated as length×width×width/2 mm^3.

[2] = test system: non-small cell lung cancer cell PC-9 subcutaneous tumors; test: Mouse tumor model of non-small cell lung cancer cell PC-9; assay type: in vivo; conditions: PC-9 tumor model; for tumor inhibition rate: Bal b/c mice, after 8 days of administration
Description: as §1, with “24” for “Similarly, 27”, “PC9” for “H1975”, “four” for “three”, “(6” for “(9”, “weight,” for “weight, and”, “50 mg/kg mouse weight, and the fourth group of mice were orally administered with Compound 1 at a dose of 100” for “50”

Compound | GI50 (BaF3-ALK-F1174L) | tumor inhibition rate ([1]; oral daily 25 mg/kg, on the second day of administration) | tumor inhibition rate ([1]; oral daily 50 mg/kg, after 8 days of administration) | body weight of the mice ([1]; oral daily 25 mg/kg) | body weight of the mice ([1]; oral daily 50 mg/kg) | tumor inhibition rate ([2]; oral daily 25 mg/kg) | tumor inhibition rate ([2]; oral daily 50 mg/kg) | tumor inhibition rate ([2]; oral daily 100 mg/kg) | body weight of the mice ([2]; oral daily 25 mg/kg, 25 mg/kg) | body weight of the mice ([2]; oral daily 50 mg/kg)
C=CC(=O)Nc1cc(Nc2ncc(Cl)c(Nc3ccccc3S(=O)(=O)C(C)C)n2)c(OC)cc1N1CCCN(C)CC1 [Compound 10, N-(5-(5-chloro-4-(2-(isopropylsulfonyl)phenylamino)pyrimidin-2-ylamino)-4-methoxy-2-(4-methyl-1,4-homopiperazin-1-yl)phenyl)acrylamide] | 1.5 µM |  |  |  |  |  |  |  |  | 
C=CC(=O)Nc1cc(Nc2ncc(Cl)c(Nc3ccccc3S(=O)(=O)C(C)C)n2)c(OC)cc1N1CCN(CC)CC1 [Compound 1, N-(5-(5-chloro-4-(2-(isopropylsulfonyl)phenylamino)pyrimidin-2-ylamino)-2-(4-ethylpiperazin-1-yl)-4-methoxyphenyl)acrylamide] |  | 70% | 81.7% | did not decrease | did not decrease | 89.8% | 95.1% | 98.7% | barely affect the body weight; also recorded: did not decrease | did not decrease
